Reference: US11839215B2, “Uracil compound and harmful arthropod control composition containing same” (Sumitomo Chemical Company, Limited, priority 2018, dated 2023)

Test system: common cutworms (Spodoptera litura)
Assay: Test Example 1: spray on cabbage seedling, mortality of common cutworm larvae
Type: in vivo
Conditions: 500 ppm diluted solution sprayed on cabbage seedling 20 mL/seedling; five second instar larvae; 25° C., 5 days
Experimental: The compound A is made to a formulation according to a similar method to that described in the Formulation Example 5, and thereto is added water containing 0.03 v/v % of shindain (registered trademark) to prepare a diluted solution containing 500 ppm of the test compound.
The diluted solution was sprayed into the cabbage (Brassicae oleracea) seedling (on the developmental stage of the second to third true leaf) that is planted in a container in a ratio of 20 mL/seedling.
Thereafter, the stem and leaf thereof was cut out and then was installed into the container that was covered with the filter paper. Five common cutworms (Spodoptera litura) at the second instar larval stages were released into the container, and the container was allowed to stand at 25° C. for 5 days. […] Mortality (%)={1−Number of the surviving insects/5}×100

SMILES	mortality of insects
CCOC(=O)COc1nc(C)cc(C)c1Oc1cc(-n2c(=O)cc(C(F)(F)F)n(C)c2=O)c(F)cc1Cl [Compound A]	100%
CCOC(=O)COc1ncccc1Oc1cc(-n2c(=O)cc(C(F)(F)F)n(C)c2=O)c(F)cc1Cl [Compound B]	0%
